Results taken from patent US10398717B2, “Pharmaceutical composition based on a hepatoprotector and prebiotic, and method for administrating” (priority 2008, dated 2019).

Key:
[1] = cited from earlier work
colon contents = conditions: in vivo; cited from earlier work
[2] = tested on: patients with diffuse liver diseases (cirrhosis, hepatitis) with intrhepatic cholestasis syndrome; conditions: human, in vivo; cited from earlier work
Sprague-Dawley rats = assay: High-fat diet induced non-alcoholic hepatitis model; format: in vivo; conditions: liver histology, day 121; oral administration during 90 days
Method: The control group (Group 4, n=14 in each group) was administered an equal amount of 1% methyl cellulose suspension. The animals were monitored for 120 days on the background of continuous pathology induction. Administration of drugs began after 30 days from the beginning of diet supplementation (10 % lard and 2% cholesterol for each 100 g feed). The effect of therapy was assessed by biochemical parameters (ALT, AST, triglycerides) and liver histology. On day 121, animals were euthanized and liver histology was performed. In the control group, […] of animals developed steatosis.

Compound: OC[C@H]1O[C@@H](O[C@@H]2[C@@H](CO)O[C@](O)(CO)[C@H]2O)[C@H](O)[C@@H](O)[C@H]1O [lactulose, 4-0-D-galactopyranosyl-D-fructose]
- solubility in water [1]: very soluble in water
- increase of volume of colon contents (colon contents): about 30%

Compound: C[S+](CC[C@H](N)C(=O)[O-])C[C@H]1O[C@@H](n2cnc3c(N)ncnc32)[C@H](O)[C@@H]1O (stereo partly drawn) [ademethionine, S-adenosil-L-metionine]
- duration of antiasthenic, anticholestatic and hepatoprotective effects after the treatment was stopped [2]: 3 months
- patients with decrease of intensity of asthenic syndrome [2]: 46%
- patients with disappearance of asthenic syndrome [2]: 54%

Compound: C[C@H](CCC(=O)O)[C@H]1CC[C@H]2[C@@H]3[C@@H](O)C[C@@H]4C[C@H](O)CC[C@]4(C)[C@H]3CC[C@]12C [Group 3, ursodeoxycholic acid]
- rats in which signs of steatosis, ballooning, and inflammation improved (Sprague-Dawley rats): 50%
